{
  "source": "patent US20220370406A1",
  "about": "“METHOD OF TREATING STIMULANT USE DISORDER USING A COMBINATION OF TOPIRAMATE AND PHENTERMINE” (University of Kentucky Research Foundation, priority 2019, published 2022)",
  "key": {"[1]": {"tested_on": "participants with cocaine use disorder", "assay": "Experimental sessions: cardiovascular measures after cocaine sampling dose during maintenance", "details": "cocaine 80 mg during topiramate (50 or 100 mg/day)+phentermine (0 mg/day) relative to cocaine 0 mg during 0+0 mg/day"}, "[2]": {"tested_on": "participants with cocaine use disorder", "assay": "Medical safety session: cardiovascular measures after intranasal cocaine", "type": "in vivo, human", "description": "Participants completed one, single-blind medical safety session to ensure they could tolerate intranasal cocaine. Intranasal cocaine doses (i.e., 0 [placebo], 10, 20, 40 and 80 mg) were administered in ascending order. Placebo (i.e., 0 mg) was administered at 0900 hours. The subjective-effect questionnaires and cardiovascular measures described below were completed 30 minutes before placebo administration (i.e., 0830 hours), immediately following and at 15-minute intervals for 45 minutes. Subsequent cocaine administrations were separated by 45 minutes."}, "[3]": {"details": "Cocaine 10 mg, Topiramate (0 mg/day) group"}, "[4]": {"details": "Cocaine 10 mg, Topiramate (50 mg/day) group"}, "[5]": {"details": "Cocaine 10 mg, Topiramate (100 mg/day) group"}, "[6]": {"details": "Cocaine 20 mg, Topiramate (0 mg/day) group"}, "[7]": {"details": "Cocaine 20 mg, Topiramate (50 mg/day) group"}, "[8]": {"details": "Cocaine 20 mg, Topiramate (100 mg/day) group"}, "[9]": {"details": "Cocaine 40 mg, Topiramate (0 mg/day) group"}, "[10]": {"details": "Cocaine 40 mg, Topiramate (50 mg/day) group"}, "[11]": {"details": "Cocaine 40 mg, Topiramate (100 mg/day) group"}, "[12]": {"details": "Cocaine 80 mg, Topiramate (0 mg/day) group"}, "[13]": {"details": "Cocaine 80 mg, Topiramate (50 mg/day) group"}, "[14]": {"details": "Cocaine 80 mg, Topiramate (100 mg/day) group"}},
  "data": [
    {"compound": "COC(=O)[C@H]1[C@@H](OC(=O)c2ccccc2)C[C@@H]2CC[C@H]1N2C", "note": "[Cocaine, cocaine]", "values": [
      {"measurement": "heart rate", "setting": "[1]", "value": "significantly increased"},
      {"measurement": "Vitals Diastolic Pressure, mean peak effect", "setting": "[2]; [3]", "value": 77.2},
      {"measurement": "Vitals Heart Rate, mean peak effect", "setting": "[2]; [3]", "value": 70.9},
      {"measurement": "Vitals Systolic Pressure, mean peak effect", "setting": "[2]; [3]", "value": 121.1},
      {"measurement": "Vitals Diastolic Pressure, mean peak effect", "setting": "[2]; [4]", "value": 84.8},
      {"measurement": "Vitals Heart Rate, mean peak effect", "setting": "[2]; [4]", "value": 67.4},
      {"measurement": "Vitals Systolic Pressure, mean peak effect", "setting": "[2]; [4]", "value": 123.9},
      {"measurement": "Vitals Diastolic Pressure, mean peak effect", "setting": "[2]; [5]", "value": 82.6},
      {"measurement": "Vitals Heart Rate, mean peak effect", "setting": "[2]; [5]", "value": 66.7},
      {"measurement": "Vitals Systolic Pressure, mean peak effect", "setting": "[2]; [5]", "value": 125.1},
      {"measurement": "Vitals Diastolic Pressure, mean peak effect", "setting": "[2]; [6]", "value": 81.5},
      {"measurement": "Vitals Heart Rate, mean peak effect", "setting": "[2]; [6]", "value": 77.9},
      {"measurement": "Vitals Systolic Pressure, mean peak effect", "setting": "[2]; [6]", "value": 125.3},
      {"measurement": "Vitals Diastolic Pressure, mean peak effect", "setting": "[2]; [7]", "value": 84.1},
      {"measurement": "Vitals Heart Rate, mean peak effect", "setting": "[2]; [7]", "value": 66.6},
      {"measurement": "Vitals Systolic Pressure, mean peak effect", "setting": "[2]; [7]", "value": 131.8},
      {"measurement": "Vitals Diastolic Pressure, mean peak effect", "setting": "[2]; [8]", "value": 82.3},
      {"measurement": "Vitals Heart Rate, mean peak effect", "setting": "[2]; [8]", "value": 64.6},
      {"measurement": "Vitals Systolic Pressure, mean peak effect", "setting": "[2]; [8]", "value": 128.3},
      {"measurement": "Vitals Diastolic Pressure, mean peak effect", "setting": "[2]; [9]", "value": 81.6},
      {"measurement": "Vitals Heart Rate, mean peak effect", "setting": "[2]; [9]", "value": 74.8},
      {"measurement": "Vitals Systolic Pressure, mean peak effect", "setting": "[2]; [9]", "value": 124.9},
      {"measurement": "Vitals Diastolic Pressure, mean peak effect", "setting": "[2]; [10]", "value": 82.4},
      {"measurement": "Vitals Heart Rate, mean peak effect", "setting": "[2]; [10]", "value": 70.8},
      {"measurement": "Vitals Systolic Pressure, mean peak effect", "setting": "[2]; [10]", "value": 129.9},
      {"measurement": "Vitals Diastolic Pressure, mean peak effect", "setting": "[2]; [11]", "value": 86.5},
      {"measurement": "Vitals Heart Rate, mean peak effect", "setting": "[2]; [11]", "value": 67.8},
      {"measurement": "Vitals Systolic Pressure, mean peak effect", "setting": "[2]; [11]", "value": 131.7},
      {"measurement": "Vitals Diastolic Pressure, mean peak effect", "setting": "[2]; [12]", "value": 85.9},
      {"measurement": "Vitals Heart Rate, mean peak effect", "setting": "[2]; [12]", "value": 85.8},
      {"measurement": "Vitals Systolic Pressure, mean peak effect", "setting": "[2]; [12]", "value": 130.5},
      {"measurement": "Vitals Diastolic Pressure, mean peak effect", "setting": "[2]; [13]", "value": 84.8},
      {"measurement": "Vitals Heart Rate, mean peak effect", "setting": "[2]; [13]", "value": 78.0},
      {"measurement": "Vitals Systolic Pressure, mean peak effect", "setting": "[2]; [13]", "value": 133.8},
      {"measurement": "Vitals Diastolic Pressure, mean peak effect", "setting": "[2]; [14]", "value": 88.3},
      {"measurement": "Vitals Heart Rate, mean peak effect", "setting": "[2]; [14]", "value": 77.6},
      {"measurement": "Vitals Systolic Pressure, mean peak effect", "setting": "[2]; [14]", "value": 137.4},
      {"measurement": "heart rate or blood pressure", "setting": "[2]; cocaine 20, 40 or 80 mg above placebo levels in at least one of the topiramate groups, medical safety session", "value": "significantly increased"}
    ]}
  ]
}
